Test results reported in patent US20100063466A1, “ABSORBENT ARTICLE” (SCA Hygiene Products AB, priority 2006, published 2010).

Tests used:
Proteus mirabilis = conditions: 29% by weight of NaCl (% dry); after 6 and 8 hours; FIG. 5
Text: (§1) Absorbent test specimens were punched out from an absorbent core produced in a test plant. A standard method for mat-forming of a core was used during production of the core in the test plant. The absorbent test specimen included a homogeneous mixture of fluff pulp, 0.72 g Weyerhauser pulp (NB 416) and 0.48 g of superabsorbent polymer (SAP) (Degussa SXM9135). The absorbent core, was compressed to a bulk of around 8-10 cm^3/g. The size of the punched-out test items was 5 cm in diameter, the weight was about 1.2 g.
(§2) Absorbent test specimens were produced according to method 1.
as §2

[1] = Measurement of water activity of salt solutions; assay type: physicochemical; conditions: different concentrations of salt in Elga-H2O; FIG. 8
Method: Water activity is measured as follows. The water activity meter is from Aqua Lab, Model Series 3 TE, […]. (U.S. Pat. No. 5,816,704). A specimen, a solution with different additions of different salts in Elga-H2O or synthetic urine, test liquid 2. was placed in a plastic cup. The quantity is not critical, but it is important that the bottom surface of the plastic cup is covered. The specimen is moved into the test chamber, which is closed, and the measurement commences. When the test value is stable, a green light flashes and the water activity can be read off digitally. The salts that were tested were: NaCl, KCl, NH4Cl, KC2H3O2 (K acetate), Na C2H3O2 (Na acetate).
The water activity was measured in Elga-H2O (USF Elga, distilled water) and synthetic urine, test liquid 2.
The water activity was measured according to method 4, but with different concentrations of salt in Elga-H2O.

E. coli = conditions: FIG. 4
Text: as §1
(§3) 16 ml (corresponding to a maximum absorption capacity of a test specimen according to method 1) of test liquid 1 containing the bacteria were added to a test specimen placed in plastic tubs, and a lid was fitted on the tubs. The tubs were turned upside down and incubated in a warm cabinet at 35° C. After incubation for 0, 6 and 12 hours, the test samples were placed in a plastic bag with peptone water and the content was homogenized (agitated and worked up) in a stomacker for 3 minutes. The homogenate was diluted in dilution tubes with peptone water and a microbiological culture was spread on agar plates. Slanetz Bartley agar was used for E. faecalis, and Drigalski agar for E. coli and P. mirabilis. The specimens were incubated at 35° C. for 1-2 days before the colonies were counted and the log CFU/ml calculated. Control tests were also carried out with absorbent cores without NaCl.
(§4) Bacteria were cultured in nutrient broth and diluted to the desired concentration of about Log 3.3 in test liquid 1 (method 4). Absorbent test specimens were produced according to method 1. 29 (high), 22 (medium) and 12 (low) % by weight NaCl (% dry) were added to the core, corresponding to 3 (high), 2 (medium) and 1 (low) % by weight (% wet) in the wet product. This proportion also applies to the other examples. The bacterial growth was measured according to method 3.

E. faecalis = conditions: FIG. 4
Text: as §1, §3, §4

P. mirabilis = conditions: FIG. 4
Text: as §1, §3, §4

[2] = 3% added salt (% wet), NaCl high, after 12 hours, 35° C, test liquid 1
[3] = 29, 22 and 12 % by weight NaCl (% dry), after 6 and 12 hours

Row | SMILES | development of NH3, ranking among specimens (Proteus mirabilis) | water activity as the concentrations of salt increase [1] | growth of E. coli (E. coli; [2]) [log CFU/ml] | growth of E. coli compared with the control tests (E. coli; [3]) | growth of E. faecalis (E. faecalis; [2]) [log CFU/ml] | growth of E. faecalis compared with the control tests (E. faecalis; [3]) | growth of P. mirabilis (P. mirabilis; [2]) [log CFU/ml] | growth of P. mirabilis compared with the control tests (P. mirabilis; [3])
1 | [Cl-].[Na+] [NaCl] | lowest | drops | < 5.5 | lower | < 5.5 | lower | < 5.5 | lower
2 | Cl.N [NH4Cl] |  | drops |  |  |  |  |  | 
3 | CC(=O)[O-].[Na+] [Na acetate] |  | drops |  |  |  |  |  | 
